Assay results reported in patent US10105365B2, “Solid antiviral dosage forms” (AbbVie Inc., priority 2014, dated 2018).
Read-outs that look alike come from different tables or passages of the source.

Assays:
[1] = Solubility (general statement); assay type: physicochemical; conditions: aqueous
[2] = Human pharmacokinetic study, Example 4 Arm II (single dose, crossover); assay type: in vivo; conditions: human, in vivo
Procedure: Formulation C5-12 and a second formulation were tested in Arm II of the study. Adult male and female subjects (N=30 for combined Arm I and Arm II studies) in general good health were selected to participate in the study according to the selection criteria. Subjects meeting the selection criteria were randomly assigned to one of the Regimen sequences as shown below in Table 4-A.
Study drug was administered as provided below in Table 4-B.
Each study regimen was taken orally with approximately 240 mL of water approximately 30 minutes after the start of standardized breakfast. Study regimens were administered orally in the morning on Study Day 1 of each period. For Regimen A the evening dose of the Single Tablet was taken orally with approximately 240 mL of water approximately 30 minutes after the start of the evening snack. Serial blood samples for pharmacokinetic analysis were collected 72 hours after dosing in each period.
The data presented in Tables 4-C through 4-G are preliminary data and are subject to database lock and final data verification.

[3] = Human pharmacokinetic study, Example 5 Arm I (single dose, replicated crossover); assay type: in vivo; conditions: single dose, non-fasting
Procedure: (§1) A Phase 1, non-fasting, open-label, two-arm, four-period, randomized, crossover study was conducted to compare and characterize the pharmacokinetics of (i) Triple Tablet when co-administered with Single Tablet, and (ii) Formulation C5-12 as discussed below. Part 1 was a single dose, two-treatment, randomized, four period, two sequence replicated crossover study with 88 subjects. Doses in the four periods were separated by at least 10 days. Part 2 was a multiple-dose, two-treatment, two period, randomized crossover study with 66 subjects. Dosing in each period was 14 days and doses in the two periods were separated by at least 10 days.
(§2) Adult male and female subjects in general good health were selected to participate in the study according to the selection criteria. Subjects meeting the selection criteria were randomly assigned to one of the sequences of Regimens A and B (four sequences for Arm I and two sequences for Arm II) as shown below in Table 5-A.
(§3) Study drug was administered as provided below in Table 5-B.
(§4) Each study regimen was taken orally with approximately 240 mL of water approximately 30 minutes after the start of standardized breakfast. Study regimens were administered orally in the morning on Study Day 1 of each period. Serial blood samples for pharmacokinetic analysis were collected 72 hours after dosing in each period.
Tables 5-C, 5-D, 5-E, and 5-F below report the Arm I pharmacokinetic data for Formulation C5-12 (separately reported for each of Compounds 1, 2, 3, and 4). Table 5-G presents the results of a relative bioavailability and 90% confidence interval analysis of the pharmacokinetic data for Formulation C5-12 relative to the reference regimen. The data presented in Tables 5-C through 5-G are preliminary data and are subject to database lock and final data verification by the statistician.

[4] = Human pharmacokinetic study, Example 5 Arm II (multiple dose, crossover); assay type: in vivo; conditions: in vivo
Procedure: as §1, §2, §3, §4

[5] = Sink Conditions dissolution testing of Formulation C5-12; assay type: physicochemical; conditions: N = 6
Procedure: The release profiles of Formulation C5-12 of Example 1 were evaluated in a Sink Conditions dissolution study. The study was conducted in 900 mL of dissolution medium using a standard USP dissolution Apparatus 2 (paddle) operating at 100 RPM at 37±0.5° C. The dissolution medium was a 0.05 M sodium phosphate buffer pH 6.8 with 15 mM cTAB as a surfactant.

[6] = Human pharmacokinetic study, Example 4 Arm III (14-day multiple dose, steady state); assay type: in vivo
[7] = Regimen B (reference regimen): two Triple Tablets + one Single Tablet morning, one Single Tablet evening, N = 171
[8] = Formulation C5-12, Day 14 versus Day 1
[9] = human, in vivo, oral, 3 Formulation C5-12 tablets daily, three Formulation C5-12 tablets daily for 14 days, non-fasting, Day 14, N = 14
[10] = three Formulation C5-12 tablets daily for 14 days, non-fasting, Day 1, N = 14

## COC(=O)N[C@H](C(=O)N1CCC[C@H]1C(=O)Nc1ccc([C@@H]2CC[C@@H](c3ccc(NC(=O)[C@@H]4CCCN4C(=O)[C@@H](NC(=O)OC)C(C)C)cc3)N2c2ccc(C(C)(C)C)cc2)cc1)C(C)C [Compound 2]
[1]
  Solubility: low solubility
[2]; both
  AUCt, geometric mean: 1510 ng·h/mL
  AUC∞, geometric mean: 1670 ng·h/mL
  Cmax, geometric mean: 117 ng/mL
  Tmax: 5.2 h
  t1/2: 23.2 h
[2]; both, 24 h
  C24, arithmetic mean, % CV: (19.4, 29) ng/mL
  C24, geometric mean: 18.7 ng/mL
[2]
  AUCt, arithmetic mean, % CV: (1560, 25) ng · h/mL
  AUC∞, arithmetic mean, % CV: (1740, 29) ng · h/mL
  Cmax, arithmetic mean, % CV: (122, 31) ng/mL
  Relative bioavailability, AUCinf, point estimate: 1.022
  Relative bioavailability, Cmax, point estimate: 1.038
[3]; both sexes, human, blood, oral, 3 film-coated Formulation C5-12 tablets, Regimen A (C5-12): three film-coated Formulation C5-12 tablets, N = 172
  half-life: 37.9 h
[3]; both sexes, human, blood, oral, 3 film-coated Formulation C5-12 tablets, Regimen A (C5-12): three film-coated Formulation C5-12 tablets, N = 172, read-out: AUCt, geometric mean
  AUC(0-t): 1660 ng·h/mL
[3]; both sexes, human, blood, oral, 3 film-coated Formulation C5-12 tablets, Regimen A (C5-12): three film-coated Formulation C5-12 tablets, N = 172, read-out: AUC∞, geometric mean
  AUC(0-inf): 1800 ng·h/mL
[3]; both sexes, human, blood, oral, 3 film-coated Formulation C5-12 tablets, Regimen A (C5-12): three film-coated Formulation C5-12 tablets, N = 172, read-out: Tmax, first value (geometric mean)
  Tmax: 5 h
[3]; both sexes, human, blood, oral, Regimen B (reference regimen): two Triple Tablets + one Single Tablet morning, one Single Tablet evening, N = 171, read-out: AUCt, geometric mean
  AUC(0-t): 1630 ng·h/mL
[3]; both sexes, human, blood, oral, Regimen B (reference regimen): two Triple Tablets + one Single Tablet morning, one Single Tablet evening, N = 171, read-out: AUC∞, geometric mean
  AUC(0-inf): 1760 ng·h/mL
[3]; both sexes, human, blood, oral, Regimen B (reference regimen): two Triple Tablets + one Single Tablet morning, one Single Tablet evening, N = 171, read-out: Tmax, first value (geometric mean)
  Tmax: 5 h
[3]; Regimen A (C5-12): three film-coated Formulation C5-12 tablets, N = 172
  Cmax, geometric mean: 124 ng/mL
[3]; [7]
  Cmax, geometric mean: 131 ng/mL
  t1/2: 39.2 h
[4]
  Exposures versus the reference regimen: bioequivalent
  Relative bioavailability, AUC24, point estimate: 1.098
  Relative bioavailability, AUCt, point estimate: 1.091
  Relative bioavailability, Cmax, point estimate: 1.087
[5]; 1 hour, 900 mL 0.05 M sodium phosphate buffer pH 6.8, 15 mM cTAB, USP Apparatus 2, 100 RPM, 37 °C
  % Released: 55%
[5]; 4 hours, pH 6.8 buffer, 15 mM cTAB
  % Released: 98%
[5]; 6 hours, pH 6.8 buffer, 15 mM cTAB
  % Released: 99%
[5]; 8 hours, pH 6.8 buffer, 15 mM cTAB
  % Released: 103%
[5]; 12 hours, pH 6.8 buffer, 15 mM cTAB
  % Released: 102%
[5]; 16 hours, pH 6.8 buffer, 15 mM cTAB
  % Released: 102%
[6]; [8]
  AUC24, RATIO: 1.34
  C24, RATIO: 1.72
  Cmax, RATIO: 1.10
[6]; human, in vivo, oral, 3 Formulation C5-12 tablets daily, three Formulation C5-12 tablets daily for 14 days, non-fasting, Day 1, N = 14
  Tmax: 5.5 h
[6]; human, in vivo, oral, 3 Formulation C5-12 tablets daily, three Formulation C5-12 tablets daily for 14 days, non-fasting, Day 1, N = 14, read-out: C24, geometric mean
  concentration at 24 h: 23.4 ng/mL
[6]; [9]
  Tmax: 5.6 h
  half-life: 29.8 h
[6]; human, in vivo, oral, 3 Formulation C5-12 tablets daily, three Formulation C5-12 tablets daily for 14 days, non-fasting, Day 14, N = 14, read-out: AUC24, geometric mean
  AUC: 1720 ng·h/mL
[6]; human, in vivo, oral, 3 Formulation C5-12 tablets daily, three Formulation C5-12 tablets daily for 14 days, non-fasting, Day 14, N = 14, read-out: C24, geometric mean
  concentration at 24 h: 40.2 ng/mL
[6]; human, in vivo, oral, 3 Formulation C5-12 tablets daily, three Formulation C5-12 tablets daily for 14 days, non-fasting, Day 14, N = 14, read-out: Cmax, geometric mean
  Cmax: 135 ng/mL
[6]; [10]
  AUC24, geometric mean: 1280 ng·h/mL
  Cmax, geometric mean: 123 ng/mL
[6]; three Formulation C5-12 tablets daily for 14 days, non-fasting, Day 14, N = 14
  β: 0.023 h⁻¹
